From patent publication US20120190752A1, “EXO-S-MECAMYLAMINE METHOD, USE, AND COMPOUND FOR TREATMENT” (Targacept Inc., priority 2009, published 2012)

Tested on: subjects with major depressive disorder (MDD) who were inadequate responders to citalopram
Test: SDS (Sheehan Disability Scale), Phase 2b add-on trial
Format: in vivo, human
Details: for SDS Difference vs placebo / SDS Adj. Mean change: ITT; for SDS Difference vs placebo: Week 8 to Week 16 LOCF; for SDS Adj. Mean change: change from Week 8 (double-blind baseline) to Week 16 LOCF, add-on to citalopram
Source text: The Sheehan Disability Scale (SDS) is widely used not only in psychiatry but also in many other chronic medical illnesses because of its generic design. It measures impairment in functioning. The scale generates 4 scores: a work disability score, a social life disability score, a family life disability score and a total score. A total score is generated through addition of the 3 individual scores (work: social life: family life). The maximum possible score is 30. In more detail, a multi-center double-blind, randomized, placebo-controlled, parallel group, flexible dose titration study of TC-5214 as adjunctive therapy in subjects with major depressive disorder (MDD) who were inadequate responders to citalopram was conducted in centers in the US and India. The study consisted of a screening period, baseline/washout period, open-label phase, double-blind phase, and a follow-up visit. Subject participation in the study could continue for up to 16 weeks of treatment. Following a washout period of up to 28 days for other antidepressants, subjects with MDD and a MADRS total score >/=28 and a Clinical Global Impression-Severity (CGI-S) score >/=4 were enrolled on Day 1 into an open-label citalopram-only phase of the study. This phase lasted 8 weeks, with citalopram (CIT) dose increased from a once-daily dose of 20 mg (Day 1 through Week 4) to 40 mg (Week 4 through Week 8). A total of 579 subjects entered the open-label citalopram phase. At Week 8, subjects who tolerated 40 mg CIT, but whose MADRS score was reduced <50% from baseline and no lower than 17, and CGI-S≧4, were considered inadequate responders. These subjects (n=270) were randomized in a double-blind fashion to receive either placebo or TC-5214-23 as add-on therapy to continued CIT. The double-blind phase of the study also lasted 8 weeks (Week 8 to Week 16). Study drug, TC-5214-23 or placebo, was started at 2 mg daily (1 mg twice per day [BID] dosing), added on to continuing CIT (40 mg PO qd). After 2 weeks of treatment, the dose of TC-5214 could be increased to 4 mg (2 mg BID) or continued unchanged, with up-titration based upon good tolerability and inadequate therapeutic response. After a further 2 weeks, the dose of TC-5214 could be increased again to 8 mg (4 mg BID) if judged appropriate by the investigator, based upon good tolerability and inadequate therapeutic response. At any time during the double-blind phase of the study, placebo or TC-5214-23 could be reduced to the previous dose level following the emergence of unacceptable adverse events (AEs). […] At this follow-up, any signs or symptoms of relapse were evaluated. If a subject was prematurely discontinued from the study between Week 8 and Week 16 for any reason, the investigator was to make every effort to perform all evaluations as per protocol, assuming the subject had reached the end of the double-blind add-on treatment phase. These evaluations were to be made as soon as possible and within 2 weeks of discontinuation. […] There was no meaningful difference in results as a function of age, gender, site, or smoking status. With regard to efficacy endpoints, the following tables present efficacy used in the ITT (Intent-to-Treat) and PP (Per Protocol) populations unless otherwise specific. The primary inference was based upon Week 16 visit using the ITT population. Change from baseline was obtained by subtracting the baseline values from the individual on-treatment values. Change from Week 16 was obtained by subtracting the Week 16 values from the individual follow-up visit (Week 18/19) values. If either the baseline or Week 16 or on-treatment or follow-up value was missing, the change from baseline or Week 16 value was also set to missing. To account for missing data, the last observation carry forward (LOCF) method was used for the ITT and PP populations. […]

[1] = ITT Population, Double Blind Week 16 LOCF, change from Week 8 (double-blind baseline)
[2] = ITT Population, Double Blind Week 18 LOCF (Follow-up)
[3] = ITT and PP populations, result in words
[4] = PP Population, Double Blind Week 16 LOCF, change from Week 8 (double-blind baseline)
[5] = PP Population, Double Blind Week 18 LOCF (Follow-up)

CNC1(C)C2CCC(C2)C1(C)C (stereo in doubt) [TC-5214, (S)—N,2,3,3-tetramethylnorbornan-2-amine]
SDS change Adjusted Mean [1]: −9.18 | SDS change Mean Difference between TC-5214 and Placebo [1]: 4.60 | SDS change Adjusted Mean [2]: −0.46 | SDS change Mean Difference between TC-5214 and Placebo [2]: −0.23 | SDS individual items (Work-School; Social Life; Life-Home Responsibilities) change from baseline compared with placebo [3]: statistically significant decreases (improvements) | SDS score change from baseline compared with placebo [3]: statistically significant decreases (improvements) | SDS Difference vs placebo: −4.49 (−5.96, −3.01) | SDS Difference vs placebo (listed as TC-5214 + CIT): −4.49 | SDS Adj. Mean change: −9.18 (0.53) | SDS Adj. Mean change (listed as TC-5214 + CIT): −9.18 | SDS change Adjusted Mean [4]: −10.21 | SDS change Mean Difference between TC-5214 and Placebo [4]: 4.86 | SDS change Adjusted Mean [5]: −0.44 | SDS change Mean Difference between TC-5214 and Placebo [5]: −0.20
